Source: US8642628B2, “Pyrrole inhibitors of S-nitrosoglutathione reductase” (N30 Pharmaceuticals, Inc., priority 2008, dated 2014)

Molecular target: T1, GSNOR (GSNO Reductase) (Homo sapiens, UniProt P11766)
T1 construct: made in house; host or cells: E. coli (arabinose-induced)
Test: GSNOR assay (inhibition of GSNOR activity, change in 340 nm absorbance)
Format: biochemical
Settings: 100 mM NaPO4 pH 7.4, 0.240 mM GSNO, 0.300 mM NADH, 0.5 μg/mL GSNO Reductase, 1% DMSO, 25° C.; values given as 'about' bounds; read-out: IC50 (GSNOR inhibitor activity)
Description: Various compounds were tested in vitro for their ability to inhibit GSNOR activity. […] GSNOR expression and purification is described in Biochemistry 2000, 39, 10720-10729.
GSNOR fermentation: Pre-cultures were grown from stabs of a GSNOR glycerol stock in 2XYT media containing 100 ug/ml ampicillin after an overnight incubation at 37° C. Cells were then added to fresh 2XYT (4L) containing ampicillin and grown to an OD (A600) of 0.6-0.9 at 37° C. before induction. GSNOR expression was induced with 0.1% arabinose in an overnight incubation at 20° C.
GSNOR Purification: E. coli cell paste was lysed by nitrogen cavitation and the clarified lysate purified by Ni affinity chromatography on an AKTA FPLC (Amersham Pharmacia). The column was eluted in 20 mM Tris pH 8.0/250 mM NaCl with a 0-500 mM imidazole gradient. […] GSNOR was recovered in the flowthrough fraction and for crystallography is further purified by Q-Sepharose and Heparin flowthrough chromatography in 20 mM Tris pH 8.0, 1 mM DTT, 10 uM ZnSO4.
GSNOR assay: GSNO and Enzyme/NADH Solutions are made up fresh each day. The Solutions are filtered and allowed to warm to room temperature. GSNO Solution: 100 mM NaPO4 (pH 7.4), 0.480 mM GSNO. 396 μL of GSNO Solution is added to a cuvette followed by 8 μL of test compound in DMSO (or DMSO only for full reaction control) and mixed with the pipette tip. Compounds to be tested are made up at a stock concentration of 10 mM in 100% DMSO. 2 fold serial dilutions are done in 100% DMSO. 8 μL of each dilution are added to an assay so that the final concentration of DMSO in the assay is 1%. The concentrations of compounds tested range from 100 to 0.003 μM. Enzyme/NADH Solution: 100 mM NaPO4 (pH 7.4), 0.600 mM NADH, 1.0 μg/mL GSNO Reductase. 396 μL of the Enzyme/NADH Solution is added to the cuvette to start the reaction. The cuvette is placed in the Cary 3E UV/Visible Spectrophotometer and the change in 340 nm absorbance/min at 25° C. is recorded for 3 minutes. The assays are done in triplicate for each compound concentration. IC50's for each compound are calculated using the standard curve analysis in the Enzyme Kinetics Module of SigmaPlot.
Final assay conditions: 100 mM NaPO4, pH 7.4, 0.240 mM GSNO, 0.300 mM NADH, 0.5 μg/mL GSNO Reductase and 1% DMSO. Final volume: 800 μL/cuvette.

T1 sequence (P11766 whole entry): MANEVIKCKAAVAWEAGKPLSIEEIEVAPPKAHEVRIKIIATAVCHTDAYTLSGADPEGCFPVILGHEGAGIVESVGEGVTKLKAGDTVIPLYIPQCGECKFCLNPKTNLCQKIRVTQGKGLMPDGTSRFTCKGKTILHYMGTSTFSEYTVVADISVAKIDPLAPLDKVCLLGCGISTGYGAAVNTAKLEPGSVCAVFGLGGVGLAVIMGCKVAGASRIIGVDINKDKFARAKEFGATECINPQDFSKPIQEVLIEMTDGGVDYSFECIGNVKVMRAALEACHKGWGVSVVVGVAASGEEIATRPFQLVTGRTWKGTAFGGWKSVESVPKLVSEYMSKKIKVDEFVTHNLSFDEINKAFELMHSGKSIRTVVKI

IC50, < 1 µM:
COc1ccc(-n2ccc(CCC(=O)O)c2-c2ccc(C(N)=O)cc2C)cc1 [Example 6, 3-(2-(4-carbamoyl-2-methylphenyl)-1-(4-methoxyphenyl)-1H-pyrrol-3-yl)propanoic acid]
Cc1cc(C(N)=O)ccc1-c1c(-c2ccc(-n3ccnc3C)cc2)ccn1-c1ccc(O)c(F)c1 [Example 29, 4-(1-(3-fluoro-4-hydroxyphenyl)-3-(4-(2-methyl-1H-imidazol-1-yl)phenyl)-1H-pyrrol-2-yl)-3-methylbenzamide]
COc1ccc(-c2ccn(-c3ccc(C(=O)O)cc3)c2-c2ccc(C(N)=O)cc2C)cc1 [Example 19, 4-(2-(4-carbamoyl-2-methylphenyl)-3-(4-methoxyphenyl)-1H-pyrrol-1-yl)benzoic acid]
Cc1cc(C(N)=O)ccc1-c1c(-c2ccc(-n3ccnc3)cc2)ccn1CCC(=O)O [Example 5, 3-(3-(4-(1H-imidazol-1-yl)phenyl)-2-(4-carbamoyl-2-methylphenyl)-1H-pyrrol-1-yl)propanoic acid]
Cc1cc(C(N)=O)ccc1-c1c(-c2ccc(-n3ccnc3C)cc2)ccn1-c1cc(F)c(O)c(F)c1 [Example 30, 4-(1-(3,5-difluoro-4-hydroxyphenyl)-3-(4-(2-methyl-1H-imidazol-1-yl)phenyl)-1H-pyrrol-2-yl)-3-methylbenzamide]
COc1ccc(-c2ccn(-c3ccc(O)c(C(=O)O)c3)c2-c2ccc(C(N)=O)cc2C)cc1 [Example 27, 5-(2-(4-carbamoyl-2-methylphenyl)-3-(4-methoxyphenyl)-1H-pyrrol-1-yl)-2-hydroxybenzoic acid]
COc1ccc(-c2ccn(-c3cc(F)c(O)c(F)c3)c2-c2ccc(C(N)=O)cc2C)cc1 [Example 25, 4-(1-(3,5-difluoro-4-hydroxyphenyl)-3-(4-methoxyphenyl)-1H-pyrrol-2-yl)-3-methylbenzamide]
COc1cc(Cl)ccc1-n1ccc(CCC(=O)O)c1-c1ccc(C(N)=O)cc1C [Example 14, 3-(2-(4-carbamoyl-2-methylphenyl)-1-(4-chloro-2-methoxyphenyl)-1H-pyrrol-3-yl)propanoic acid]
COc1ccc(-c2ccn(-c3ccc(O)c([N+](=O)[O-])c3)c2-c2ccc(C(N)=O)cc2C)cc1 [Example 17, 4-(1-(4-hydroxy-3-nitrophenyl)-3-(4-methoxyphenyl)-1H-pyrrol-2-yl)-3-methylbenzamide]
Cc1cc(C(N)=O)ccc1-c1c(CCC(=O)O)ccn1-c1ccc(-n2ccnc2)cc1 [Example 13, 3-(1-(4-(1H-imidazol-1-yl)phenyl)-2-(4-carbamoyl-2-methylphenyl)-1H-pyrrol-3-yl)propanoic acid]
COc1ccc(-c2ccn(-c3ccc(C(=O)O)c(O)c3)c2-c2ccc(C(N)=O)cc2C)cc1 [Example 15, 4-(2-(4-carbamoyl-2-methylphenyl)-3-(4-methoxyphenyl)-1H-pyrrol-1-yl)-2-hydroxybenzoic acid]
COc1ccc(-c2ccn(CCC(=O)O)c2-c2ccc(C(N)=O)cc2C)cc1 [Example 1, 3-(2-(4-carbamoyl-2-methylphenyl)-3-(4-methoxyphenyl)-1H-pyrrol-1-yl)propanoic acid]
COc1ccc(-c2ccn(-c3ccc(O)c(F)c3)c2-c2ccc(C(N)=O)cc2C)cc1 [Example 23, 4-(1-(3-fluoro-4-hydroxyphenyl)-3-(4-methoxyphenyl)-1H-pyrrol-2-yl)-3-methylbenzamide]

IC50, < 5 µM:
COc1ccc(-c2ccn(CC(C)C(=O)O)c2-c2ccc(C(N)=O)cc2C)cc1 (stereo not drawn) [Example 3, 3-(2-(4-carbamoyl-2-methylphenyl)-3-(4-methoxyphenyl)-1H-pyrrol-1-yl)-2-methylpropanoic acid]
COc1ccc(-c2ccn(CC(F)(F)C(=O)O)c2-c2ccc(C(N)=O)cc2C)cc1 [Example 9, 3-(2-(4-carbamoyl-2-methylphenyl)-3-(4-methoxyphenyl)-1H-pyrrol-1-yl)-2,2-difluoropropanoic acid]
COc1ccc(-c2ccn(-c3ccc(C(=O)O)c(F)c3)c2-c2ccc(C(N)=O)cc2C)cc1 [Example 16, 4-(2-(4-carbamoyl-2-methylphenyl)-3-(4-methoxyphenyl)-1H-pyrrol-1-yl)-2-fluorobenzoic acid]
COc1ccc(-c2ccn(-c3ccc(C(=O)O)c(Cl)c3)c2-c2ccc(C(N)=O)cc2C)cc1 [Example 20, 4-(2-(4-carbamoyl-2-methylphenyl)-3-(4-methoxyphenyl)-1H-pyrrol-1-yl)-2-chlorobenzoic acid]
COc1ccc(-c2ccn(-c3ccc(O)cn3)c2-c2ccc(C(N)=O)cc2C)cc1 [Example 26, 4-(1-(5-hydroxypyridin-2-yl)-3-(4-methoxyphenyl)-1H-pyrrol-2-yl)-3-methylbenzamide]
